Assay results taken from the Deep4Chem optical property database.

Test: solvent given as SMILES

CCCCCCCCCCCCn1c(-c2cc(-c3nc4ccccc4n3CCCCCCCCCCCC)cc(-c3nc4ccccc4n3CCCCCCCCCCCC)c2)nc2ccccc21
emission maximum (in C1CCOC1): 367.4 nm

Oc1ccccc1-c1nc2c3ccccc3c3ccccc3c2o1
emission maximum (in Cc1ccccc1): 367 nm

CCCCCCN1C(=O)c2cccc3c(-c4ccc(-c5cc(-c6ccc(OC)cc6)n(-c6ccccc6)n5)s4)ccc(c23)C1=O
emission maximum (in ClCCl): 521 nm

CC(C)c1ccc2ccc3c(C(C)C)ccc4ccc1c2c43
emission maximum (in CCCCCC): 380 nm
emission maximum (in CO): 380 nm
emission maximum (in ClCCl): 381 nm

CCCCN(CCCC)c1ccc(/C=C/c2ccc3nc(/C=C/c4ccc(N(C)C)cc4)c(-c4ccccc4)nc3c2)cc1
emission maximum (in C1COCCO1): 549 nm
emission maximum (in CC#N): 661 nm
emission maximum (in ClCCl): 615 nm

Clc1ccc(/C=C(\c2ccccc2)c2nc3ccccc3s2)cc1
emission maximum (in C1CCCCC1): 420 nm
emission maximum (in CO): 430 nm

FC(F)(F)c1ccc2oc3nc4oc5ccc(N6c7ccccc7Oc7ccccc76)cc5c4cc3c2c1
emission maximum (in ClC(Cl)Cl): 489 nm

Fc1nc(F)c(F)c(C#Cc2cc3c(cc2C#Cc2c(F)c(F)nc(F)c2F)OC2(CCCCC2)O3)c1F
emission maximum (in CC#N): 460 nm

CN(C)c1ccc(C2=CC3=C(c4ccc(C=O)cc4)[C@H]4c5ccccc5[C@]3(S2)c2ccccc24)cc1
emission maximum (in ClCCl): 616 nm

N#Cc1cnc(-c2c3ccccc3cc3ccccc23)nc1
emission maximum (in CCO): 510 nm
emission maximum (in ClCCl): 492 nm

CC(C)(C)c1cc(-c2ccc(-c3cccs3)s2)c2c(c1)c1cc(C(C)(C)C)cc(-c3ccc(-c4cccs4)s3)c1n2-c1ccc(-c2cccs2)s1
emission maximum (in ClCCl): 434 nm

COc1cc2c(cc1OC)C1=C[C@H](c3ccc(Cl)cc3)C3(C(C#N)=C(C#N)N1CC2)c1cc(Br)ccc1-c1ccc(Br)cc13
emission maximum (in ClCCl): 420 nm

CCCCCCCCc1ccc(-c2c3cc(-c4cc(CCCCCCCC)c(-c5ccc(-c6sc(/C=C7\SC(SCC)=NC7=O)cc6CCCCCCCC)s5)s4)sc3c(-c3ccc(CCCCCCCC)s3)c3cc(-c4cc(CCCCCCCC)c(-c5ccc(-c6sc(/C=C7\SC(SCC)=NC7=O)cc6CCCCCCCC)s5)s4)sc23)s1
emission maximum (in ClC(Cl)Cl): 653 nm

CCCCCCCCCCCCCCCCCCOC(=O)/C=C/C1=CC2=C(c3c(C)cc(C)cc3C)c3cccn3[B-](F)(F)[N+]2=C1
emission maximum (in ClCCl): 569 nm

CC(C)CCCCN1CCc2c1ccc1c3c(ccc21)CCCC3=O
emission maximum (in C1CCCCC1): 507 nm
emission maximum (in CC#N): 625 nm
emission maximum (in CC(C)O): 637 nm
emission maximum (in CCC(C)=O): 612 nm
emission maximum (in CCO): 539 nm
emission maximum (in CCOC(C)=O): 586 nm
emission maximum (in CS(C)=O): 643 nm
emission maximum (in Cc1ccccc1): 554 nm
emission maximum (in ClCCl): 595 nm
emission maximum (in Clc1ccccc1): 573 nm

Cc1cc(=O)oc2cc3c4ccc(C(C)(C)C)cc4c4cc(C(C)(C)C)ccc4c3cc12
emission maximum (in ClC(Cl)Cl): 423 nm

Cc1c(C)c(-c2ccc(-c3cccnc3)cc2)c(C)c(C)c1B(c1c(C)c(C)c(-c2ccc(-c3cccnc3)cc2)c(C)c1C)c1c(C)c(C)c(-c2ccc(-c3cccnc3)cc2)c(C)c1C
emission maximum (in ClCCl): 404 nm

c1ccc2c3c(ccc2c1)C1(c2cc(-c4ccc5ccc6cccc7ccc4c5c67)ccc2-c2ccc(-c4ccc5ccc6cccc7ccc4c5c67)cc21)c1ccc2ccccc2c1O3
emission maximum (in ClC(Cl)Cl): 422 nm

CN1c2ccc3c(c2-c2ccccc2S1(=O)=O)-c1ccccc1S(=O)(=O)N3C
emission maximum (in ClCCl): 443 nm

COC(=O)c1cccc2c1C#Cc1c(N)cccc1OCCCO2
emission maximum (in CC#N): 487 nm
emission maximum (in ClCCl): 453 nm

CSc1nccc(/C=C/c2ccc(N(c3ccccc3)c3ccc(/C=C/c4ccnc(SC)n4)cc3)cc2)n1
emission maximum (in ClCCl): 540 nm

CN(CC(O)c1cccc(O)c1)c1ccc([N+](=O)[O-])c(C2CC(c3cccc4ccccc34)=NN2c2ccccc2)c1 (configuration not stated)
emission maximum (in C1CCCCC1): 495 nm
emission maximum (in C1CCOC1): 467 nm
emission maximum (in C1COCCO1): 454 nm
emission maximum (in CC#N): 526 nm
emission maximum (in CC(C)O): 511 nm
emission maximum (in CCOC(C)=O): 498 nm
emission maximum (in CCOCC): 497 nm
emission maximum (in CO): 514 nm
emission maximum (in Cc1ccccc1): 497 nm
emission maximum (in ClC(Cl)Cl): 451 nm
emission maximum (in O): 518 nm

c1ccc(N(c2ccccc2)c2ccc(-c3ccc(-c4cc(-c5ccccn5)nc(-c5ccccn5)c4)cc3)cc2)cc1
emission maximum (in ClCCl): 489 nm

COc1ccc(-c2csc(/C(C#N)=C\Nc3ccc(C#N)cc3)n2)cc1
emission maximum (in CC#N): 451 nm
emission maximum (in CCO): 444 nm
emission maximum (in CN(C)C=O): 453 nm
emission maximum (in Cc1ccccc1): 441 nm
emission maximum (in ClCCl): 447 nm

O=Cc1ccc(-c2ccc(C3=CCCCC3)s2)s1
emission maximum (in C1CCOC1): 467 nm
emission maximum (in CC#N): 485 nm
emission maximum (in CCCCCC): 444 nm
emission maximum (in CCO): 498 nm
emission maximum (in OCCOCCO): 508 nm
emission maximum (in c1ccncc1): 483 nm

CCC1=C(C)C2=C(C)c3c(C)c(-c4csc(N5CCOCC5)n4)c(C)n3[B-](F)(F)[N+]2=C1C
emission maximum (in C1CCOC1): 618 nm
emission maximum (in C1COCCO1): 606 nm
emission maximum (in CC#N): 543 nm
emission maximum (in CC(C)O): 538 nm
emission maximum (in CCO): 539 nm
emission maximum (in CCOC(C)=O): 549 nm
emission maximum (in CN(C)C=O): 539 nm
emission maximum (in CO): 540 nm
emission maximum (in CS(C)=O): 539 nm
emission maximum (in Cc1ccccc1): 597 nm
emission maximum (in ClC(Cl)Cl): 603 nm
emission maximum (in ClCCl): 537 nm

CC(C)(C)NC(=O)c1cc2ccc3cccc4ccc(c1C(=O)NC(C)(C)C)c2c34
emission maximum (in ClC(Cl)Cl): 392 nm

CC(C)(C)NC(=O)c1ccc(F)c2ccc3c4ccccc4c4ccccc4c3c12
emission maximum (in ClCCl): 405 nm

c1ccc2c(c1)-c1ccccc1C21c2ccccc2-c2oc3c(c21)C1(c2ccccc2-c2ccccc21)c1ccccc1-3
emission maximum (in C1CCOC1): 393 nm

CC1=C2C=CC=[N+]2[B-](F)(F)n2cccc21
emission maximum (in CCCCCC): 506 nm
emission maximum (in CO): 503 nm
emission maximum (in ClCCl): 507 nm

c1ccc(-c2nc(-c3ccccc3)nc(-n3c4ccccc4c4cc(-n5c6ccccc6c6ccccc65)ccc43)n2)cc1
emission maximum (in C1CCOC1): 535.43 nm
emission maximum (in Cc1ccccc1): 502.82 nm

CCCCCCOc1cc(N(CC)CC)ccc1/C=C/C(=C(C#N)C#N)c1ccc2c(c1)c1ccccc1n2CC
emission maximum (in ClCCl): 583 nm

COc1ccc(C#Cc2c3cc4ccccc4cc3c(C#C[Si](C(C)C)(C(C)C)C(C)C)c3cc4ccccc4cc23)cc1
emission maximum (in ClCCl): 666 nm

CC(C)c1cc(C(C)C)c(B2c3ccccc3Oc3cc(N4c5ccccc5C5(c6ccccc6-c6ccccc65)c5ccccc54)ccc32)c(C(C)C)c1
emission maximum (in Cc1ccccc1): 456 nm

Cn1nc(-c2ccc(C#N)cc2)cc1-c1ccccc1
emission maximum (in ClCCl): 348 nm

CC(=O)c1ccc(-c2ccc3c(c2)C(=O)c2cc(-c4ccc(C(C)=O)cc4)ccc2-3)cc1
emission maximum (in C1CCOC1): 375 nm

CCN(CC)c1ccc(-c2nc3c(nc2-c2ccc(B(c4c(C)cc(C)cc4C)c4c(C)cc(C)cc4C)cc2)c2ccccc2n3C)cc1
emission maximum (in C1CCCCC1): 462 nm
emission maximum (in C1CCOC1): 528 nm
emission maximum (in CC(C)=O): 544 nm
emission maximum (in CS(C)=O): 567 nm
emission maximum (in Cc1ccccc1): 493 nm

CN(c1ccccc1)c1ccc(N(c2ccccc2)c2ccc3ccc4c(N(c5ccccc5)c5ccc(N(C)c6ccccc6)cc5)ccc5ccc2c3c54)cc1
emission maximum (in ClCCl): 620 nm

c1cncc(-c2ccc(-c3c4ccc(-c5cccnc5)cc4c(-c4ccc(-c5cccnc5)cc4)c4ccc(-c5cccnc5)cc34)cc2)c1
emission maximum (in ClCCl): 443 nm

CC1=N/C(=C\c2cc(C#N)cc(N(C)C)c2)C(=O)N1C
emission maximum (in C1CCOC1): 544 nm
emission maximum (in CC#N): 595 nm
emission maximum (in CCCCCC): 475 nm

COc1ccc(N(c2ccc(OC)cc2)c2ccc(-c3ccc(-c4ccc(-c5ccc(-c6ccc(N(c7ccc(OC)cc7)c7ccc(OC)cc7)cc6)s5)c5nsnc45)s3)cc2)cc1
emission maximum (in ClC(Cl)Cl): 710 nm

CN(C)c1ccc(-c2cc(-c3ccccc3)nn2C)cc1
emission maximum (in ClCCl): 365 nm

CC(C)c1ccc(-c2nc(-c3ccccc3)c3ccccn23)cc1
emission maximum (in CC#N): 478 nm

Cc1cc(C(F)(F)F)nc2c1ccc1nc(-c3ccc(F)c(F)c3)cn12
emission maximum (in CC#N): 460 nm
emission maximum (in CCCCCC): 433 nm
emission maximum (in CCCCOC(C)=O): 453 nm
emission maximum (in CCOC(C)=O): 454 nm
emission maximum (in CO): 456 nm
emission maximum (in Cc1ccccc1): 451 nm
emission maximum (in ClC(Cl)Cl): 448 nm
emission maximum (in ClCCl): 451 nm
emission maximum (in c1ccccc1): 450 nm

O=C1Cc2cc3c(cc2CCCc2ccc(cc2)CCC3)CC(=O)Cc2ccc(c3nsnc23)C1
emission maximum (in C1CCCCC1): 501 nm
emission maximum (in CC#N): 544 nm
emission maximum (in ClC(Cl)Cl): 522 nm

CCCCCCCCC1(CCCCCCCC)c2cc(-c3ccccc3)ccc2-c2ccc(-c3ccccc3)cc21
emission maximum (in ClC(Cl)Cl): 361 nm

C[Si]1(C)O[Si](C)(C)c2cc3cc4c(cc3cc21)C(=O)c1cc2cc3c(cc2cc1C4=O)[Si](C)(C)O[Si]3(C)C
emission maximum (in ClC(Cl)Cl): 437 nm

O=c1c2ccccc2nc2ccc(-c3ccc(N(c4ccccc4)c4ccccc4)cc3)cn12
emission maximum (in ClCCl): 521 nm

Cc1nc2c(ccc3c2sc(/C=C/c2cc4c5c(c2)CCCN5CCC4)[n+]3C)s1
emission maximum (in CO): 622 nm
emission maximum (in ClC(Cl)Cl): 623 nm

O=C(O)CCCCCNC(=O)c1cccc2c(=O)c3ccccc3[nH]c12
emission maximum (in O): 438 nm

CNc1cc2nc3cc(F)c(F)cc3nc2cc1NC
emission maximum (in CCO): 529 nm

F[B-]1(F)n2c(Nc3cccc4cccnc34)ccc2C(c2ccccc2)=C2C=CC(Cl)=[N+]21
emission maximum (in C1CCCCC1): 580 nm
emission maximum (in CC#N): 580 nm
emission maximum (in Cc1ccccc1): 586 nm
emission maximum (in ClC(Cl)Cl): 583 nm

Cc1ccc(C2CC(=O)Oc3c2c2nc4ccccc4nc2c2ccccc32)cc1 (configuration not stated)
emission maximum (in ClC(Cl)Cl): 440 nm

CCCCCCCCCCCCN1C(=O)c2c(c3ccc4cc(-c5ccc(Cl)cc5)c(OC)cc4c3c3c2ccc2cc(-c4ccc(Cl)cc4)c(OC)cc23)C1=O
emission maximum (in ClCCl): 526 nm

Cc1ccc(CN(Cc2ccc(C)cc2)c2nc(C#N)c(N(Cc3ccc(C)cc3)Cc3ccc(C)cc3)nc2C#N)cc1
emission maximum (in ClC(Cl)Cl): 592 nm

COCCOCCOCCOc1ccc(/C=C/C2=[N+]3C(=C(c4cc(OC)cc(OC)c4)c4c(C)c(I)c(/C=C/c5ccc(OCCOCCOCCOC)cc5)n4[B-]3(F)F)C(C)=C2I)cc1
emission maximum (in C1CCOC1): 684 nm
emission maximum (in CS(C)=O): 695 nm
emission maximum (in ClCCl): 687 nm
